Where two headings read alike, the source gives them in different places.
How the values were obtained:
MMP-1 = target: T1, MMP-1 (Homo sapiens, UniProt P03956); assay: Automated MMP profiling assay (P218 quenched fluorescence), MMP-1; assay type: biochemical
T1 sequence (P03956 100-469): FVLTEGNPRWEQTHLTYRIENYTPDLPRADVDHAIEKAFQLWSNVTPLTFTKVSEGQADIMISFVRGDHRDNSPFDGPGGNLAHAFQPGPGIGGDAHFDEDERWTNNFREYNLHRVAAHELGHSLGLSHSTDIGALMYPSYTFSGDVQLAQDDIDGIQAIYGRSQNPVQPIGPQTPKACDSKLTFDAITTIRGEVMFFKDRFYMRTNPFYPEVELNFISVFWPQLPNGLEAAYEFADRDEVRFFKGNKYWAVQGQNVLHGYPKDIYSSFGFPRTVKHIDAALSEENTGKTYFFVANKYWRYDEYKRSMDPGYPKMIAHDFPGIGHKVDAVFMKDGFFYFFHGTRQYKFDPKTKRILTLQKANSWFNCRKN

MMP-2 = target: T2, MMP-2 (Homo sapiens, UniProt P08253); assay: Automated MMP profiling assay (P218 quenched fluorescence), MMP-2; assay type: biochemical
T2 sequence (P08253 110-660): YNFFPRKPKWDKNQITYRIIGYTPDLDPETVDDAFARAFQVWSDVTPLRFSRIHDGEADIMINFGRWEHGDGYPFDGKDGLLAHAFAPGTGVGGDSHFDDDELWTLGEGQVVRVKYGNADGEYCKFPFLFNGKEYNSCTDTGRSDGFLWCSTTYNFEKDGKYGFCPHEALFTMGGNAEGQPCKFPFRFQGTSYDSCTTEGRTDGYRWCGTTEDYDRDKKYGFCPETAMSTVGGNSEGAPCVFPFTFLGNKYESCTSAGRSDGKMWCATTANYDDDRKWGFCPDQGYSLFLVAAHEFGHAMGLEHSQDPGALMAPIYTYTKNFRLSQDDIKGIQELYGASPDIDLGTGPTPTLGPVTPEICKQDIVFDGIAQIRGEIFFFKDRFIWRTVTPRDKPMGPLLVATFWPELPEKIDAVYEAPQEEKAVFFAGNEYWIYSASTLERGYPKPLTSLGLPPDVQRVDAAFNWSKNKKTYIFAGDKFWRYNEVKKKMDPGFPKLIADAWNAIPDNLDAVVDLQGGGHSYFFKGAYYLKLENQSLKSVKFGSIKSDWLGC

MMP-3 = MMP-3 (Homo sapiens, UniProt P08254); assay: Automated MMP profiling assay (P218 quenched fluorescence), MMP-3; assay type: biochemical
Chain of MMP-3 (P08254 100-274 limits assumed): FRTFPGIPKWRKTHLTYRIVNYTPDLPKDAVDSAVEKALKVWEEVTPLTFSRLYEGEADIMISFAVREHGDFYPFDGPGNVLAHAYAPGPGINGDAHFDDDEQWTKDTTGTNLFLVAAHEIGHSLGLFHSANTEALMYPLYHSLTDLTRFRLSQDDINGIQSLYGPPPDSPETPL
Procedure: Truncated Prostromelysin-257 is expressed in a soluble form in E.coli as described by Marcy et al., Biochemistry, 30, 6476-6483, 1991. Soluble truncated prostromelysin is purified by a modification of the monoclonal antibody affinity chromatography method described by Housley et al., J. Biol. Chem., 268, 4481-87, 1993.
This assay was originally described by Knight et al., FEBS Letters, 296, 263-266, 1992, for a related substrate. The assay is run continuously in a 3.0ml cuvette using a Perkin-Elmer LS 50 B Spectrofluorimeter at 25 ^∞C in a final volume of 2.0 mls. P218 substrate (10mM) in 100% DMSO is diluted to a final concentration of 2.0 micromolar (µM) into assay buffer: 50mM MES, pH 6.5 containing 150mM NaCl, 10mM CaCl2, 0.005% Brij-35, and 1%(v/v) DMSO. Test compounds(10mM) in DMSO are diluted in assay buffer at an initial concentration of 10 to 100 micromolar. These are diluted to a final concentration in the assay from 10 nM to 1 µM depending upon their potency previously determined in primary thiopeptilide assay described above. The reaction is initiated by the addition of recombinant stromelysin (MMP-3) at a final concentration of 1.0 nM. Upon peptide cleavage, the fluorescent MCA group is detected using an excitation wavelength of 328 nanometers and an emission wavelength of 393 nanometers. The assay is linear from 0.2 to 5nM MMP-3 concentration and percent inhibition is calculated as described above for the primary thiopeptilide assay and IC50 values are determined by a linear regression analysis of percent inhibition versus log drug concentration. The peptide sequence of the MCA substrate, hereinafter designated P218, is shown below: [formula]
This assay is run with a protocol analogous to that reported for MMP-3 inhibition using the synthetic peptide P218 and each of the three enzymes and measuring quenched fluorescence. This assay can be run with each invention compound with the three enzymes MMP-3, MMP-9 and MMP-2 in parallel as adapted for a 96-well microtitre plate using a Hamilton AT ® workstation.

MMP-9 = MMP-9 (Homo sapiens, UniProt P14780); assay: Automated MMP profiling assay (P218 quenched fluorescence), MMP-9; assay type: biochemical
Chain of MMP-9 (P14780 94-707): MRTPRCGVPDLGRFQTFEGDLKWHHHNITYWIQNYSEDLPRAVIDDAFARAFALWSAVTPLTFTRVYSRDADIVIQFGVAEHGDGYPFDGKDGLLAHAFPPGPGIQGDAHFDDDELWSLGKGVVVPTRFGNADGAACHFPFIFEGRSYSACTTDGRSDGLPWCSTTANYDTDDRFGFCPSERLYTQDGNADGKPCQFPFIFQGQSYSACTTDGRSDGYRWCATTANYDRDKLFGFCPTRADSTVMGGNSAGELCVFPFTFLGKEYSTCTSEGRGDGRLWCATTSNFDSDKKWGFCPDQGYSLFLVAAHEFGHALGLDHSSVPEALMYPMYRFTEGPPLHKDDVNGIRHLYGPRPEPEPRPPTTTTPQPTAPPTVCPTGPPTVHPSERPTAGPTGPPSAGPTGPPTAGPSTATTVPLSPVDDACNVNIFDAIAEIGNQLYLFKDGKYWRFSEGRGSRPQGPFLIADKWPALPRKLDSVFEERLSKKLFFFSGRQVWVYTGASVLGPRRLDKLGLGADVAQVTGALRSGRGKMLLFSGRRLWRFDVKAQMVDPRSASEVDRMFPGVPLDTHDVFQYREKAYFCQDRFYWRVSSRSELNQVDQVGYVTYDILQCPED
Procedure: MMP-9 is isolated modifying the previously described procedures of Hibbs et al (J. Biol. Chem., 260, 2493-2500, 1984) and Wilhelm et al (J. Biol. Chem., 264, 17213-17221, 1989). Briefly, polymorphonuclear leukocytes (PMN) preparations are isolated as described above from 3 or more units of freshly drawn whole blood. Cells are resuspended in phosphate buffered saline (PBS) containing 100 ng/ml phorbol myristate acetate (PMA) in the presence of […] di-isopropylfluorophospate (DFP), 1 µg/ml leupeptin and aprotinin, and 1 mg/ml catalase for 1 hr at 37°C. Supernatants are collected by centrifugation (300 x g) and the samples are frozen at-70°C. All chromatographic methods are performed at 4°C. Thawed samples are concentrated 5-fold using an Amicon chamber equipped with a YM-10 membrane. The concentrate is pressure dialyzed against 0.02M Tris-HCl, 0.1 M NaCl, 1 mM CaCl2 , 1 µM ZnCl2, 0.001% Brij-35, 0.02% sodium azide (NaN3), pH 7.5 and applied to DEAE ion exchange chromatography resin which is previously equilibrated with the same buffer at a flow rate of 0.4 ml/min. The column is extensively washed with the same buffer and gelatinase is eluted as 4 ml fractions from the column with 0.02M Tris-HCl, 0.5 M NaCI, 1 mM CaCl2, 1 µM ZnCl2, 0.001% Brij-35, 0.02% NaN3, pH 7.5. Gelatinase containing fractions are observed by gelatin zymography (see below), loaded onto a gelatin agarose affinity resin and washed with the same buffer. […] The protein content associated with material is determined with a micro-BCA assay (Pierce, Rockford, IL), lyophilized and reconstituted to a desired working concentration (100 µg/ml).
This assay was originally described by Knight et al., FEBS Letters, 296, 263-266, 1992, for a related substrate. […] Upon peptide cleavage, the fluorescent MCA group is detected using an excitation wavelength of 328 nanometers and an emission wavelength of 393 nanometers. […]
This assay is run with a protocol analogous to that reported for MMP-3 inhibition using the synthetic peptide P218 and each of the three enzymes and measuring quenched fluorescence. […]

Wistar rats = assay: Subdural hematoma (SDH) model in rats, quantification of edema formation; assay type: in vivo; conditions: rat-SDH- model, dose of 0.3 mg/kg i.v., edema assessed 24 hours after surgery
Procedure: Wistar rats, weighting 200-250 g were used. Anaesthesia was induced with i.p. injection of 1.2 ml Ketavet (120 mg Ketamin) and 0.8 ml Rompun™ (2% Xylancin) per animal. Body temperatures were maintained at 37°C by means of a rectal thermometer and a heating system.
A midline scalp incision was made and the saggital and coronal sutures identified. A burr hole 3 mm in diameter was drilled 2 mm to the left of the saggital suture and 1 mm posterior to the coronal suture. Using an operating microscope, the dura was incised and a blunt, pre-manufactured plastic tip (ca. 6.0 mm long) was carefully inserted 0.8 mm deep into the subdural space. Rapid-curing cyanoacrylate glue (Histoacryl) was used to seal the burr hole and secure the position of the plastic tip. […]
The edema formation was assessed 24 hours after surgery. […] The wet weight of both hemispheres was determined and after drying for 24 hours at 110°C the dry weights were determined. Based on the increase in tissue water content, tissue swelling (i.e., increase in volume) may be calculated employing the following (modified) equation: (ΔDW(%))/(DWε)× 100(%Swelling) [formula] where DW % is the difference in tissue dry weight between the normal and edematous brain, and DW the dry weight (%) of the edematous brain.

SMILES | Ki (MMP-1; read-out: MMP-1 Ki) [nM] | Ki (MMP-2) [nM] | Ki (MMP-3; read-out: MMP-3 Ki) [nM] | Ki (MMP-9; read-out: MMP-9 Ki) [nM] | Ki (MMP-2; read-out: MMP-2 Ki) [nM] | Ki (MMP-1) [nM] | Ki (MMP-3) [nM] | Ki (MMP-9) [nM] | reduced the increase in tissue water content (Wistar rats) [%]
CCOc1ccc(-c2ccc(C(=O)[C@H]3CC[C@@H](Sc4ccccc4)[C@@H]3C(=O)O)cc2)cc1 (racemic) [Example 1] | 3700 | 0.46 | 20 | 15 | – | – | – | – | –
CCOc1ccc(-c2ccc(C(=O)CC(CCN3C(=O)c4ccccc4C3=O)C(=O)O)cc2)cc1 (racemic) [Example 3] | 3400 | – | 14 | 0.78 | 1.1 | – | – | – | –
O=C(CC(CCn1nnc2ccccc2c1=O)C(=O)O)c1ccc(-c2ccc(Cl)cc2)cc1 (racemic) [Example 6] | – | – | – | – | 1.2 | 2400 | 6.2 | 3 | –
O=C(CC(CCn1nnc2ccccc2c1=O)C(=O)O)c1ccc(-c2ccc(Cl)cc2)cc1 (single isomer, unassigned; (+)) [Example 5, (+)-4-(4'-Chloro-biphenyl-4-yl)-4-oxo-2-[2-(4-oxo-4H-benzo[d][1,2,3]triazin-3-yl)-ethyl]-butyricacid] | – | – | – | – | – | – | – | – | 38

Reference: EP1031349A1, “Use of substituted 4-biarylbutyric and 5-biarylpentanoic acid derivatives for the treatment of cerebral diseases” (Bayer Aktiengesellschaft, priority 1999, dated 2000)
